For series [1], the system named is Zymosan induced paw volume increase. Briefly: Zymosan-induced paw oedema. It is filed as in vivo, rat. To be noted: oral; 2 hours after challenge. The procedure:
(§1) The interplantar injection of Zymosan-induced mechanical hyperalgesia was used as a model of inflammatory pain (Meller, Neuropharmacology, 1994, 33, 1471-1478). In this model, typically a male Sprague-Dawley or Wistar rat (200-250 g) receives an interplantar injection of 3 mg/100 μl zymosan into one hind paw. A marked inflammation occurs in this hind paw. Drugs are administered orally for evaluation of efficacy, 30 min. before the inflammatory insult. The hyperalgesia induced by zymosan administration was evaluated using the Randall-Selitto method (Arch. Int. Pharmacodyn., 1957, 111, 409). The quantitation of the analgesic effect is achieved by an analgesimeter, which consist in applying to the inflamed paw an increasing weight (from 130-140 g up to 500 g). The difference in the mechanical pain threshold between the basal value (generally 230-250 g) and the one tolerated by the animals treated with the drug, determined 4 hours after the inflammatory challenge, is defined as mechanical hyperalgesia. Mechanical hyperalgesia is expressed for the compounds of the invention as ED50, which is the dose of the administered compound able to increase the pain threshold by 50% in comparison with the group of control animals. The corresponding ED100, representing the dose able of reducing of 100% the pain threshold, can be calculated for those cases where there is a linear dose-response relationship. In vivo anti-inflammatory effect exerted by the compound of the invention can be assessed in the same Zymosan induced inflammation test described above, by measuring the volume of the oedema induced by the inflammatory agent. The oedema was evaluated as the increase in the volume of the Zymosan injected paw within a time of 0-2 hrs. The measurements of the variation of the oedema volume of the paw were recorded using hydroplethysmometer, which consists of two plastic cuvettes containing a surfactant liquid, the larger one being used for immersion of the paw, connected to the smaller one which contains a transducer capable of recording small displacements of the volume used for the measure. The paw is immersed in the cuvettes up to the tibiotarsal joint. The volume of the liquid displaced is proportional to the extent of the inflammation. The efficacy of the compounds of the invention in preventing oedema formation is expressed as ED30, is measured 2 hours after the inflammatory challenge, and represents the dose able of reducing of 30%, the Zymosan induced paw volume increase in comparison to control animals (animals treated with Zymosan but treated with only distilled water instead of the testing compound). The corresponding ED50, representing the dose able of reducing of 50% the Zymosan induced paw volume increase, can be calculated for those cases where there is a linear dose-response relationship. In both the experiments, for each test compound, at least three doses were used, with 10 animals per group. Compounds of the invention were tested at 10, 20 and 40 mg/Kg.

In series [2] the test system is Zymosan-induced mechanical hyperalgesia. Briefly: Zymosan-induced mechanical hyperalgesia (Randall-Selitto), inflammatory pain. It is filed as in vivo, rat. To be noted: oral, 30 min before zymosan, 4 hours after challenge. The procedure:
as §1

The conditions of series [3]: even at the higher doses tested. From the text:
The performance of representative compounds of Formula (I), in the tests described above, is summarized for both the analgesic effect and the anti-inflammatory effect in Table 4, where the activity of the compounds of the invention is compared with the performance in the same test of well known standards.

As to `CS(=O)(=O)Nc1ccc([N+](=O)[O-])cc1Oc1ccccc1` [Nimesulide], in series [1], the “Oedema Reduction ED30” value turned out to be 0.5 mg/kg. Also, in series [2] (Rattus norvegicus, read-out: Analgesia ED50), the ED50 was found to be 7.4 mg/kg. The “Analgesia ED100” value in series [2] worked out at 161 mg/kg. For the same compound, the ulcerative side effects entry in series [3] is listed as “ulcerative side effects”.

One may read the ED50 as the dose that gives a 50% effect, or the effect in half of the subjects.

Values taken from patent publication US8193353B2, “6-1H-imidazo-quinazoline and quinolines derivatives, new potent analgesics and anti-inflammatory agents” (Rottapharm S.p.A, priority 2006, dated 2012).
